Values after ≈ are worked out from the molar mass of the structure shown. Where two headings read alike, the source gives them in different places.
Columns and labels:
Type in all cases: cell-based
[1] = tested on: Phytophthora infestans; settings: Phytophthora infestas; 1 mg/mL
[2] = tested on: Botryosphaeria berengeriana; assay: Ex vivo mycelial growth inhibition, growth rate method; settings: 1 mg/mL
Excerpt: (§1) 3-(3',4'-methylenedioxy phenyl)-N-n-propyl acrylamide (at a purity of 99%), 3-(3',4'-methylenedioxy phenyl)-piperidine acrylate (at a purity of 99%), the control agents, 96.5% of chlorothalonil technical (non-systemic broad-spectrum fungicide), 97.2% of carbendazim technical (systemic broad-spectrum fungicide), 97.0% of procymidone technical (systemic fungicide), 96.0% of dimethomorphtechnical ((E,Z)-4-[3-(4-chlorphenyl)3-(3,4-dimethoxy phenyl)acryloyl]morpholine, systemic fungicide), 97.0% of azoxystrobin technical (systemic broad-spectrum fungicide).
(§2) The inhibition of samples for testing on the mycelial growth of plant pathogenic fungi for testing is determined with a growth rate method. 3-(3',4'-methylenedioxy phenyl)-N-n-propyl acrylamide, 3-(3',4'-methylenedioxy phenyl)-piperidine acrylate and five control agents are dissolved with dimethyl sulfoxide (DMSO), then formulated at 5-7 concentrations of different gradients for test following the trial test results, with the same concentration of DMSO as the control solvent, each treatment in triplicate. Fungal cakes with a diameter of 4 mm are taken from the edge of the colony, inoculated into the center of a PDA plate containing different agents of different concentrations and the DMSO control, with one piece of fungal cake inoculated in each plate (with a diameter of […]), and incubated in a constant temperature incubator at a temperature of 22±1.5°C. 7 days later (10-20 days may be needed for some pathogenic fungi), the diameter of the colony is measured with a cross over method according to the mycelial growth profile of the control pathogenic fungi, then the inhibition rate of mycelial growth is calculated.
(§3) The computational formula is as below: the inhibition rate of mycelial growth (%) = [(the diameter of the control colony - the diameter of the treated colony)/the diameter of the control colony] × 100.
(§4) The inhibition results of each agent at a concentration of 1 mg/mL on the mycelial growth of plant pathogenic fungi are shown in Tables 1 and 2.

[3] = tested on: Botryosphaeriana berengeriana; assay: as above; settings: 1 mg/mL
Excerpt: as §1, §2, §3, §4

[4] = tested on: Botrytis cinerea; assay: as above; settings: 1 mg/mL
Excerpt: as §1, §2, §3, §4

[5] = tested on: C. gossypii; assay: as above; settings: 1 mg/mL; for Average Diameter of the Colony: C. gossypii; for inhibition at 1000 µg/mL: Colletotrichum gossypii, C. cossypii, read-out: Inhibition Rate
Excerpt: as §1, §2, §3, §4

[6] = tested on: Colletotrichum capsici; assay: as above; settings: 1 mg/mL
Excerpt: as §1, §2, §3, §4

[7] = tested on: Coniella diplodiella; assay: as above; settings: 1 mg/mL
Excerpt: as §1, §2, §3, §4

[8] = tested on: Exserohilum turcicum; assay: as above; settings: 1 mg/mL
Excerpt: as §1, §2, §3, §4

[9] = tested on: F. oxysporum f. sp. lini; assay: as above; settings: 1 mg/mL; for inhibition at 1000 µg/mL: Fusarium oxysporum
Excerpt: as §1, §2, §3, §4

[10] = tested on: F. oxysporum f. sp. vasinfectum; assay: as above; settings: 1 mg/mL; for inhibition at 1000 µg/mL: Fusarium oxysporum
Excerpt: as §1, §2, §3, §4

[11] = tested on: F. verticillioide; assay: as above; settings: 1 mg/mL
Excerpt: as §1, §2, §3, §4

[12] = tested on: Gaeumannomyces graminis var. graminis and G. graminis var. tritici; assay: as above; settings: 1 mg/mL
Excerpt: as §1, §2, §3, §4

[13] = tested on: Mycosphaerlla melonis; assay: as above; settings: 1 mg/mL
Excerpt: as §1, §2, §3, §4

[14] = tested on: Phytophthora capsici; assay: as above; settings: Phytophthora capsici; 1 mg/mL
Excerpt: as §1, §2, §3, §4

[15] = tested on: Pythium aphanidermatum; assay: as above; settings: 1 mg/mL
Excerpt: as §1, §2, §3, §4

[16] = tested on: Rhizoctonia solani; assay: as above; settings: Rhizoctonia solani; 1 mg/mL
Excerpt: as §1, §2, §3, §4

[17] = tested on: Sclerotinia sclerotiorum; assay: as above; settings: 1 mg/mL
Excerpt: as §1, §2, §3, §4

[18] = tested on: Thanatephorus cucumeris; assay: as above; settings: 1 mg/mL
Excerpt: as §1, §2, §3, §4

[19] = tested on: Valsa mali; assay: as above; settings: 1 mg/mL
Excerpt: as §1, §2, §3, §4

[20] = tested on: Fusarium graminearum; assay: microbe, parasite or virus in culture
[21] = tested on: F. graminearum; assay: microbe, parasite or virus in culture; settings: for Average Diameter of the Colony: F. graminearum, 1 mg/mL; for inhibition at 1000 µg/mL: Fusarium graminearum, read-out: Inhibition Rate
[22] = tested on: Pyricularia grisea; assay: microbe, parasite or virus in culture; settings: for Average Diameter of the Colony: 1 mg/mL; for inhibition at 1000 µg/mL: read-out: Inhibition Rate
[23] = tested on: Phytophthora infestans; assay: microbe, parasite or virus in culture; settings: for Average Diameter of the Colony: 1 mg/mL
[24] = tested on: Botrytis cinerea; assay: Toxicity determination (EC50) on mycelial growth, growth rate method
Description: as §2
(§5) 3-(3',4'-methylenedioxy phenyl)-piperidine acrylate, the control agents 96.5% of chlorothalonil technical and 97.0% of procymidone technical. Agents for testing and the control agents chlorothalonil and procymidone are treated at 5-8 concentrations of different gradients on the basis of preliminary tests to ensure that the inhibition rates for treatments at all the concentrations are between 10% and 90%.
(§6) For specific determination methods, with reference to Embodiment 1. The concentration of active ingredients in the culture medium is used as the testing concentration to calculate the toxic regression equation (Y=bx+a) and the median inhibition concentration EC50, 95% confidence limit, and relative toxicity. Relative toxicity (compared to chlorothalonil) = EC50 of chlorothalonil / EC50 of 3-(3',4'-methylenedioxy phenyl)-piperidine acrylate, and relative toxicity (compared to procymidone) = EC50 of procymidone / EC50 of 3-(3',4'-methylenedioxy phenyl)-piperidine acrylate.

[25] = tested on: Colletotrichum capsici; assay: as above
Description: as §2, §5, §6

[26] = tested on: Exserohilum turcicum; assay: as above
Description: as §2, §5, §6

[27] = tested on: Sclerotinia sclerotiorum; assay: as above
Description: as §2, §5, §6

[28] = tested on: Valsa mali; assay: as above
Description: as §2, §5, §6

[29] = tested on: Fusarium graminearum; assay: microbe, parasite or virus in culture; remark: listed apart in the source
[30] = tested on: F. graminearum; assay: microbe, parasite or virus in culture
[31] = tested on: Magnaporthe grisea; assay: microbe, parasite or virus in culture
[32] = tested on: Phytophthora infestans; assay: microbe, parasite or virus in culture
[33] = EC50 of chlorothalonil / EC50 of agent
[34] = EC50 of procymidone / EC50 of agent
[35] = median inhibition concentration

Question: Which results are given for `N#Cc1c(Cl)c(Cl)c(Cl)c(C#N)c1Cl` [Chlorothalonil, chlorothalonil]?
Answer: Average Diameter of the Colony [1]: 1.78 cm; Average Diameter of the Colony [2]: 2.11 cm; inhibition at 1000 µg/mL [2]: 69%; Average Diameter of the Colony [3]: 0.94 cm; inhibition at 1000 µg/mL [3]: 83.5%; Average Diameter of the Colony [4]: 1.16 cm; inhibition at 1000 µg/mL [4]: 84.5%; Average Diameter of the Colony [5]: 1.45 cm; inhibition at 1000 µg/mL [5]: 73.2%; Average Diameter of the Colony [6]: 1.95 cm; inhibition at 1000 µg/mL ([6]; Colletotrichum truncatum): 71.2%; Average Diameter of the Colony [7]: 0.00 cm; inhibition at 1000 µg/mL [7]: 100%; Average Diameter of the Colony [8]: 1.41 cm; inhibition at 1000 µg/mL [8]: 77.3%; Average Diameter of the Colony [9]: 3.73 cm; inhibition at 1000 µg/mL [9]: 58.6%; Average Diameter of the Colony [10]: 2.45 cm; inhibition at 1000 µg/mL [10]: 66.2%; Average Diameter of the Colony [11]: 0.87 cm; inhibition at 1000 µg/mL [11]: 74.3%; Average Diameter of the Colony [12]: 2.51 cm; inhibition at 1000 µg/mL [12]: 64.9%; Average Diameter of the Colony [13]: 2.16 cm; inhibition at 1000 µg/mL [13]: 74.9%; Average Diameter of the Colony [14]: 0.91 cm; inhibition at 1000 µg/mL [14]: 82.8%; Average Diameter of the Colony [15]: 1.14 cm; inhibition at 1000 µg/mL [15]: 83%; Average Diameter of the Colony [16]: 0.00 cm; inhibition at 1000 µg/mL [16]: 100%; Average Diameter of the Colony [17]: 0.00 cm; inhibition at 1000 µg/mL [17]: 100%; Average Diameter of the Colony [18]: 1.05 cm; inhibition at 1000 µg/mL [18]: 87.8%; Average Diameter of the Colony [19]: 1.65 cm; inhibition at 1000 µg/mL ([19]; Cytospora mali): 79.1%; Average Diameter of the Colony ([20]; 1 mg/mL): 0.71 cm; inhibition at 1000 µg/mL ([20]; read-out: Inhibition Rate): 86.7%; Average Diameter of the Colony [21]: 1.92 cm; inhibition at 1000 µg/mL [21]: 77.7%; Average Diameter of the Colony [22]: 1.63 cm; inhibition at 1000 µg/mL [22]: 81.9%; Average Diameter of the Colony [23]: 0.20 cm; Relative Toxicity (Compared to Chlorothalonil) [24, 33]: 1.00; Relative Toxicity (Compared to Procymidone) [24, 34]: 0.45; EC50 [24, 35]: 177 µg/mL (≈ 665 µM); EC50 ([25]; Colletotrichum truncatum, median inhibition concentration, read-out: EC50): 404 µg/mL (≈ 1520 µM); Relative Toxicity (Compared to Chlorothalonil) [25, 33]: 1.00; Relative Toxicity (Compared to Procymidone) [25, 34]: 1.28; Relative Toxicity (Compared to Chlorothalonil) [26, 33]: 1.00; Relative Toxicity (Compared to Procymidone) [26, 34]: 0.26; EC50 ([26]; median inhibition concentration, read-out: EC50): 411 µg/mL (≈ 1550 µM); Relative Toxicity (Compared to Chlorothalonil) [27, 33]: 1.00; Relative Toxicity (Compared to Procymidone) [27, 34]: 1.13; EC50 [27, 35]: 62.7 µg/mL (≈ 236 µM); EC50 ([28]; Cytospora mali, median inhibition concentration, read-out: EC50): 418 µg/mL (≈ 1570 µM); Relative Toxicity (Compared to Chlorothalonil) [28, 33]: 1.00; Relative Toxicity (Compared to Procymidone) [28, 34]: 1.02; Relative Toxicity (Compared to Chlorothalonil) [29, 33]: 1.00; Relative Toxicity (Compared to Procymidone) [29, 34]: 0.31; EC50 [29, 35]: 469 µg/mL (≈ 1760 µM); Relative Toxicity (Compared to Chlorothalonil) [30, 33]: 1.00; Relative Toxicity (Compared to Procymidone) [30, 34]: 3.75; EC50 ([30]; Fusarium graminearum, median inhibition concentration): 227 µg/mL (≈ 853 µM); Relative Toxicity (Compared to Chlorothalonil) [31, 33]: 1.00; Relative Toxicity (Compared to Procymidone) [31, 34]: 0.71; EC50 ([31]; Pyricularia oryzae, median inhibition concentration): 436 µg/mL (≈ 1640 µM); Relative Toxicity (Compared to Chlorothalonil) [32, 33]: 1.00; Relative Toxicity (Compared to Procymidone) [32, 34]: 6.78; EC50 [32, 35]: 115 µg/mL (≈ 431 µM)

Question: With `COc1ccc(C(=CC(=O)N2CCOCC2)c2ccc(Cl)cc2)cc1OC` [Dimethomorph, (E,Z)-4-[3-(4-chlorphenyl)3-(3,4-dimethoxyphenyl)acryloyl]morpholine] as the compound, how does the “Average Diameter of the Colony” value [4] read?
Answer: 2.33 cm

Question: And the inhibition at 1000 µg/mL [4]?
Answer: 74.1%

Question: What about the “Average Diameter of the Colony” value [5] of the same compound?
Answer: 3.93 cm

Question: And the inhibition at 1000 µg/mL [5]?
Answer: 56.3%

Question: What about the “Average Diameter of the Colony” value [8] of the same compound?
Answer: 6.50 cm

Question: And the inhibition at 1000 µg/mL [8]?
Answer: 27.8%

Question: What about the “Average Diameter of the Colony” value [9] of the same compound?
Answer: 6.27 cm

Question: What about the inhibition at 1000 µg/mL [9] of the same compound?
Answer: 30.3%

Question: What about the “Average Diameter of the Colony” value [10] of the same compound?
Answer: 6.03 cm

Question: And the inhibition at 1000 µg/mL [10]?
Answer: 33%

Question: What about the “Average Diameter of the Colony” value [13] of the same compound?
Answer: 2.13 cm

Question: What about the inhibition at 1000 µg/mL [13] of the same compound?
Answer: 76.3%

Question: And the “Average Diameter of the Colony” value [14]?
Answer: 0.00 cm

Question: What about the inhibition at 1000 µg/mL [14] of the same compound?
Answer: 100%

Question: And the “Average Diameter of the Colony” value [17]?
Answer: 4.77 cm

Question: What about the inhibition at 1000 µg/mL [17] of the same compound?
Answer: 47%

Question: What about the “Average Diameter of the Colony” value [21] of the same compound?
Answer: 6.23 cm

Question: And the inhibition at 1000 µg/mL [21]?
Answer: 30.8%

Question: What about the “Average Diameter of the Colony” value [22] of the same compound?
Answer: 6.67 cm

Question: What about the inhibition at 1000 µg/mL [22] of the same compound?
Answer: 25.9%

Question: And the “Average Diameter of the Colony” value [23]?
Answer: 0.00 cm

Question: What about the inhibition at 1000 µg/mL ([23]; read-out: Inhibition Rate) of the same compound?
Answer: 100%
